These results are taken from ChEMBL document CHEMBL5113463, “Discovery and preclinical evaluations of JBD0131, a novel nitrodihydro-imidazooxazole anti-tuberculosis agent” (Bioorg Med Chem Lett, 2022).

The structures appear in SMILES notation. In brackets after ≈: the same amount, converted by molar mass. Some results are limits rather than exact numbers.

The nature of series [1]: Plasma protein binding in mouse assessed as bound fraction. To be noted: read-out: PPB (converted). Type of series: ADME, cell-free.
Series [2] is described as follows: Apparent permeability across basolateral to apical side in dog MDCK cells. Type of series: ADME, cell-based, Canis lupus familiaris.
The target of series [3] is T1, A-type voltage-gated potassium channel KCND3 (Homo sapiens, UniProt Q9UK17).
T1 sequence (Q9UK17 whole entry): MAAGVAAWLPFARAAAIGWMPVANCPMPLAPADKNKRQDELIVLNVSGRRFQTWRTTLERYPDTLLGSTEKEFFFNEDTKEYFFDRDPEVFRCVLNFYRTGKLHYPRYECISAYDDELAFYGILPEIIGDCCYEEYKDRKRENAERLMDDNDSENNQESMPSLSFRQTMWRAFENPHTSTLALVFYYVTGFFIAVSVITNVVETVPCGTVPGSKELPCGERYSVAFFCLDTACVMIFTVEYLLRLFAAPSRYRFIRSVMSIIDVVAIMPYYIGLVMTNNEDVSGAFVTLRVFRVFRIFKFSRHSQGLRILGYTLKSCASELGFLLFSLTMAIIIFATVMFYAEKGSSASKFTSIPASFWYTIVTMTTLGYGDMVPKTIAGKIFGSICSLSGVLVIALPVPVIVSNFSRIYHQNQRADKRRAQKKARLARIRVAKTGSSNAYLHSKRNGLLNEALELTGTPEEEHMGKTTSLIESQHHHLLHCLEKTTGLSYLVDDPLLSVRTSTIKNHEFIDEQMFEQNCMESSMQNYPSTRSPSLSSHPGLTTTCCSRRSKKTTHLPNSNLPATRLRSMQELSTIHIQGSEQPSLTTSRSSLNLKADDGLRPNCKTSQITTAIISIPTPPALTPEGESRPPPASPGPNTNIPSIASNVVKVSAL
The experiment in a line: Inhibition of Kv4.3 (unknown origin).

The subject of series [4] is Mycobacterium tuberculosis. The experiment in a line: Antimycobacterial activity against clinical isolate drug susceptible Mycobacterium tuberculosis H37Rv assessed as bacterial growth inhibition. Type of series: functional.
The nature of series [5]: Volume of distribution in CD-1 mouse at 0.6 mg/kg, iv. In kind it is ADME, organism-based. The conditions noted are these: in vivo.
Series [6] can be described thus: Metabolic stability in dog liver microsomes assessed as half life. Type of series: ADME, Canis lupus familiaris, Microsome.
The target in series [7] is Voltage-gated inwardly rectifying potassium channel KCNH2 (Homo sapiens, UniProt Q12809). Briefly: Inhibition of human ERG. In kind it is toxicity.
Sequence of Voltage-gated inwardly rectifying potassium channel KCNH2 (Q12809 whole entry): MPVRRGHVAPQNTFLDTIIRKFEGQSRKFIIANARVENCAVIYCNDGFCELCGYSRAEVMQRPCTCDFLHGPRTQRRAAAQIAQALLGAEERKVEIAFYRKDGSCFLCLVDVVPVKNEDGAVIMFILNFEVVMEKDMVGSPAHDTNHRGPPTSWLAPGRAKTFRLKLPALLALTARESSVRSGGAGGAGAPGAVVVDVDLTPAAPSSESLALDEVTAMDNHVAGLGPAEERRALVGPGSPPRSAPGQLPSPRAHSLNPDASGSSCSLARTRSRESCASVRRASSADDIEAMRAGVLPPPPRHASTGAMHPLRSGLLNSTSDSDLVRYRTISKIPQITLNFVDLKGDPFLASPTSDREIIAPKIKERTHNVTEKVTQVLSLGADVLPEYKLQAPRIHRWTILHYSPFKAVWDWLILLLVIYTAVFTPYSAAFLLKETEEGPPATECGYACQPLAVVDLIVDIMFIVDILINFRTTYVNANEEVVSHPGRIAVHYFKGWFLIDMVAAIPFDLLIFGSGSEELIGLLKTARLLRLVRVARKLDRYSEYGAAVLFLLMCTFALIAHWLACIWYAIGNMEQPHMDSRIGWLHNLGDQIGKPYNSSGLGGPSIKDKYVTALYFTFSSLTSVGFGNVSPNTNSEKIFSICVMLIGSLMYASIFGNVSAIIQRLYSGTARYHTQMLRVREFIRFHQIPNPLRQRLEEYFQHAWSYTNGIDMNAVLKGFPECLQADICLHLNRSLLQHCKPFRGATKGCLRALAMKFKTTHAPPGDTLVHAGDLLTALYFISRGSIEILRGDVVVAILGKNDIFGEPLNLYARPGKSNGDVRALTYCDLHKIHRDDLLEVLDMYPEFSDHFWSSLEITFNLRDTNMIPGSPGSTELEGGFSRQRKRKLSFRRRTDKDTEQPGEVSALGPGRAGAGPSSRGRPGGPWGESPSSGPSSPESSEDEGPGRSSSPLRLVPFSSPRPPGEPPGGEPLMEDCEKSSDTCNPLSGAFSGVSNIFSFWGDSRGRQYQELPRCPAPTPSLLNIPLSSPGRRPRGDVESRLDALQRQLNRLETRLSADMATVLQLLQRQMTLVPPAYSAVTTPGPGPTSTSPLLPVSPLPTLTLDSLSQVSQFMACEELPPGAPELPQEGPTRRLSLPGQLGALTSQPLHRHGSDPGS
The nature of series [8]: Plasma protein binding in human assessed as bound fraction. Type of series: ADME, cell-free. The conditions noted are these: read-out: PPB (converted).
The nature of series [9]: Half life in Sprague-Dawley rat at 1 mg/kg, iv. In kind it is ADME, organism-based. To be noted: in vivo.
A short description of series [10]: AUC (0-last) in CD-1 mouse at 5 mg/kg, po. Details: dose 5 mg/kg, route po. The conditions noted are these: mouse, in vivo. In kind it is ADME, organism-based.
A short description of series [11]: Oral bioavailability in Beagle dog at 2 mg/kg. Type of series: ADME, organism-based, Canis lupus familiaris. The conditions noted are these: in vivo.
The nature of series [12]: Clearance in Beagle dog at 0.5 mg/kg, iv. In kind it is ADME, organism-based, Canis lupus familiaris. The conditions noted are these: in vivo.
Series [13] in a line: Drug distribution in Sprague-Dawley rat kidney at 10 mg/kg, po administered as C14-lableled compound and assessed as radioactivity. In kind it is ADME, organism-based. The conditions noted are these: in vivo.
Another series deals with T2, Cytochrome P450 1A2 (Homo sapiens, UniProt P05177).
T2 sequence (P05177 whole entry): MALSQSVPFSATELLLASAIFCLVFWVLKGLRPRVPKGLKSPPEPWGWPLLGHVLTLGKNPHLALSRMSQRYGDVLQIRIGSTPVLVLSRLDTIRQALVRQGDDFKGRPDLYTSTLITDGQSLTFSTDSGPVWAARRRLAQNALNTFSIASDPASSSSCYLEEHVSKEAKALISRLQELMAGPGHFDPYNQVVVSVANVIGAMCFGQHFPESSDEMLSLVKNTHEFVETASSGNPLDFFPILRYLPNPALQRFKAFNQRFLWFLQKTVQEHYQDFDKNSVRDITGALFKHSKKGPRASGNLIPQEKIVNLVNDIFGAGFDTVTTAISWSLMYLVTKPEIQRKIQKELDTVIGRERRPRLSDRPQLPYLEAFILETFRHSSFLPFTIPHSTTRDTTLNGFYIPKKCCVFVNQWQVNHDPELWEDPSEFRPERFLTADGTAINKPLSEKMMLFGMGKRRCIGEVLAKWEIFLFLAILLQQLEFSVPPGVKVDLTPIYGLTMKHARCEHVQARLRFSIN
Briefly: Inhibition of CYP1A2 (unknown origin). In kind it is ADME.

Series [14] is described as follows: Efflux ratio of apparent permeability across basolateral to apical over apical to basolateral membrane in dog MDCK cells. In kind it is ADME, cell-based, Canis lupus familiaris.
Another series has as its target T3, Cytochrome P450 2B6 (Homo sapiens, UniProt P20813).
T3 sequence (P20813 whole entry): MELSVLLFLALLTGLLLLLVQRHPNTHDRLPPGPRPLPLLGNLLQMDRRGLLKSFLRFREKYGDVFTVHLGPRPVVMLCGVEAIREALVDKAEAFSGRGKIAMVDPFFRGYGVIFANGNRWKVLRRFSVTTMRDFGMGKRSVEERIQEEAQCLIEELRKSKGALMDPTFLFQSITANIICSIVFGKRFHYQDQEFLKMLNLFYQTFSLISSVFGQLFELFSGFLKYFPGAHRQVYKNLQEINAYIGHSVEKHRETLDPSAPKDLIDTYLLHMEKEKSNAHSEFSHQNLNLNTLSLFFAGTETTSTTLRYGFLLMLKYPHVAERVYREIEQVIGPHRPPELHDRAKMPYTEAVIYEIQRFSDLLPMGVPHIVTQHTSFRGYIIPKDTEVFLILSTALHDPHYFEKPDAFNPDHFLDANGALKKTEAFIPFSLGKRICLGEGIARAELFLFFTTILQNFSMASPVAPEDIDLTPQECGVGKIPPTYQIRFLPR
The experiment in a line: Inhibition of CYP2B6 (unknown origin). Type of series: ADME.

Series [15] in a line: Aqueous solubility of compound at pH 7.4. Type of series: physicochemical. To be noted: buffer.
Series [16] is described as follows: Cmax in CD-1 mouse at 5 mg/kg, po. Type of series: ADME, organism-based. Further details: dose 5 mg/kg, route po. To be noted: in vivo.
The target of a further series is Cytochrome P450 2D6 (Homo sapiens, UniProt P10635). Briefly: Inhibition of CYP2D6 (unknown origin). In kind it is ADME.
Sequence of Cytochrome P450 2D6 (P10635 whole entry): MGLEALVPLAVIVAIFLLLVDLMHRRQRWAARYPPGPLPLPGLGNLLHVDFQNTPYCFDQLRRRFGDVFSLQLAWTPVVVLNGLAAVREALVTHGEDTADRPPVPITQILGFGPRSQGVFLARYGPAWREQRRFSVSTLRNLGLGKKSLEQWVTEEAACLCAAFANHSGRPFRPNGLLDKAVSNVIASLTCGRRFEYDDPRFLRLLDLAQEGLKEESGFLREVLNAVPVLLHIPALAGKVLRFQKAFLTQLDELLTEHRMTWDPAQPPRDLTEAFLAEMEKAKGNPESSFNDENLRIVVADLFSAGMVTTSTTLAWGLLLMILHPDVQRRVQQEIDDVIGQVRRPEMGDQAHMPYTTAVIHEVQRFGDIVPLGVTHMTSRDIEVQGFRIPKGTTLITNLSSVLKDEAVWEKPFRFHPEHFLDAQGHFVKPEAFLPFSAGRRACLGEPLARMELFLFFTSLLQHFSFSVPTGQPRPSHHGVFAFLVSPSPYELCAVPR
In series [17] the test system is Mycobacterium tuberculosis. The experiment in a line: Antimycobacterial activity against Mycobacterium tuberculosis H37Rv assessed as bacterial growth inhibition incubated for 7 days by MABA assay. In kind it is functional. To be noted: 168 h, time 7 day. Background: The colour change of resazurin is a common sign of viable cells or microbes.
Series [18] can be described thus: Plasma protein binding in rat assessed as bound fraction. Type of series: ADME, cell-free. The conditions noted are these: read-out: PPB (converted).
The nature of series [19]: Metabolic stability in cynomolgus monkey liver microsomes assessed as half life. In kind it is ADME, Macaca fascicularis, Microsome. On the technique in general: Microsomes from liver hold many membrane-bound enzymes, among them those of drug oxidation.

As to `C[C@]1(CN2Cc3nc(-c4ccc(F)cc4)sc3C2)CN=C(N)O1`, the fraction unbound in series [1] was 0.018; in series [8], 0.018; in [18], 0.055. Also, the Papp B→A – broadly, how fast a substance crosses the layer from the basolateral side – in series [2] was 15.8 ×10⁻⁶ cm/s. For the same compound, the IC50 (commonly the concentration that gives 50% inhibition) in series [3] is above 13.3 µM; in series [7], above 13.3 µM; on Cytochrome P450 1A2, above 100 µM; against Cytochrome P450 2B6, above 100 µM; at Cytochrome P450 2D6 it was 80.6 µM. Besides, the MIC50 (as a rule, an inhibitory concentration at the 50% level, which refers to growth in some studies and to a panel of isolates in others) in series [4] was 0.012 µg/mL (≈ 0.0361 µM). The MIC90 (in general, the lowest concentration that inhibits either 90% of growth or 90% of the strains tested, depending on the study) in [4] is 0.03 µg/mL (≈ 0.0903 µM). Also, the Vd (usually the apparent volume that relates the amount in the body to the concentration in plasma or blood) in series [5] amounted to 2.69 L/kg. The half-life – broadly, the time needed for the level to fall by half in the phase considered – is 151 min in series [6], 167 min in series [9] and 75 min in series [19]. This compound also yielded an AUClast in series [10] of 7247 ng·h/mL. In addition, in series [11], the bioavailability (as a rule, the share of a dose that reaches the circulation, judged against a reference dose that is usually intravenous) turned out to be 26.4%. Besides, the clearance (as a rule, a measure of how efficiently the substance is removed, as volume per time) in series [12] was 12 mL/min/kg. Moreover, the Drug uptake result in series [13] is “Active”. Further, the efflux ratio (usually the permeability from basolateral to apical divided by that in the opposite direction, in the common usage) in [14] is 0.76. The solubility (usually the dissolved amount per volume that the medium holds) in series [15] is 13.5 µM (≈ 4.49 µg/mL). In addition, the peak level in series [16] (Cmax) was 753 ng/mL. Besides, in series [17], the MIC (as a rule, the smallest concentration in the dilution series that meets the test's criterion for growth inhibition) was 0.035 µg/mL (≈ 0.105 µM).
